Measurements taken from US20140228325A1, “ALKENE DERIVATIVES AS SPHINGOSINE 1-PHOSPHATE (S1P) RECEPTOR MODULATORS” (Allergan, Inc., priority 2013, published 2014).

molecular target: T1, human S1P1 receptor (Homo sapiens, UniProt P21453); assay: GTP γ35S binding assay for S1P1 activity; type: biochemical; details: membranes of cells stably expressing the S1P1 receptor, test concentrations 0.08 to 5,000 nM, 30 min at 25° C.
T1 construct: expressed in transfected cells; membranes used
Description: Compounds were synthesized and tested for S1P1 activity using the GTP γ^35S binding assay. These compounds may be assessed for their ability to activate or block activation of the human S1P1 receptor in cells stably expressing the S1P1 receptor. GTP γ^35S binding was measured in the medium containing (mM) HEPES 25, pH 7.4, MgCl2 10, NaCl 100, dithitothreitol 0.5, digitonin 0.003%, 0.2 nM GTP γ^35S, and 5 μg membrane protein in a volume of 150 μl. Test compounds were included in the concentration range from 0.08 to 5,000 nM unless indicated otherwise. Membranes were incubated with 100 μM 5′-adenylylimmidodiphosphate for 30 min, and subsequently with 10 μM GDP for 10 min on ice. Drug solutions and membrane were mixed, and then reactions were initiated by adding GTP γ^35S and continued for 30 min at 25° C. Reaction mixtures were filtered over Whatman GF/B filters under vacuum, and washed three times with 3 mL of ice-cold buffer (HEPES 25, pH7.4, MgCl2 10 and NaCl 100). Filters were dried and mixed with scintillant, and counted for ^35S activity using a β-counter. Agonist-induced GTP γ^35S binding was obtained by subtracting that in the absence of agonist. Binding data were analyzed using a non-linear regression method. In case of antagonist assay, the reaction mixture contained 10 nM S1P in the presence of test antagonist at concentrations ranging from 0.08 to 5000 nM.
Activity potency: S1P1 receptor from GTP γ^35S: nM, (EC50),

T1 sequence (P21453 whole entry): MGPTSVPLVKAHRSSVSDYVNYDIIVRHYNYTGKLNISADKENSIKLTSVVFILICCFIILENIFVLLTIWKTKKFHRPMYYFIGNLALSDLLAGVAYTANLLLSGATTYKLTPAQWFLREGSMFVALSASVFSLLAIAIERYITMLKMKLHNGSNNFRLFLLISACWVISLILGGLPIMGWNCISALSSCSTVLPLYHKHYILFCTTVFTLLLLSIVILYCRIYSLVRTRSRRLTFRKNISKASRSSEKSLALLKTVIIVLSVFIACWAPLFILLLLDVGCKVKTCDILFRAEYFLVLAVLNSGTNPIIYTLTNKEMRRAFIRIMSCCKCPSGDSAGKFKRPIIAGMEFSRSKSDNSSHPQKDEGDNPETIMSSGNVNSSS

Row | EC50 | SMILES
1 | 639 nM | Cc1ccc(/C=C(\CCCCSc2ccc(CNCCC(=O)O)cc2)c2cc(F)cc(F)c2)cc1C [Compound 9, 3-[(4-{[(5E)-5-(3,5-Difluorophenyl)-6-(3,4-dimethylphenyl)hex-5-en-1-yl]thio}benzyl)amino]propanoic acid]
2 | 7.84 nM | Cc1ccc(/C=C(\CCCOc2ccc(CNCCCP(=O)(O)O)cc2)c2cc(F)cc(F)c2)cc1C [Compound 4, {3-[(4-{[(4E)-4-(3,5-Difluorophenyl)-5-(3,4-dimethylphenyl)pent-4-en-1-yl]oxy}benzyl)amino]propyl}phosphonic acid]
3 | 73.2 nM | Cc1ccc(/C=C(\CCCOc2ccc(CNCCC(=O)O)cc2)c2cccc(Cl)c2)cc1C [Compound 2, 3-[(4-{[(4E)-4-(3-Chlorophenyl)-5-(3,4-dimethylphenyl)pent-4-en-1-yl]oxy}benzyl)amino]propanoic acid]
4 | 450 nM | Cc1ccc(/C=C(\CCC[S+]([O-])c2ccc(CNCCC(=O)O)cc2)c2cccc(Cl)c2)cc1C (centres unmarked) [Compound 5, 3-[(4-{[(4E)-4-(3-Chlorophenyl)-5-(3,4-dimethylphenyl)pent-4-en-1-yl]sulfinyl}benzyl)amino]propanoic acid]
5 | 9.65 nM | Cc1ccc(/C=C(\CCCOc2ccc(CNCCCP(=O)(O)O)cc2)c2cccc(Cl)c2)cc1C [Compound 1, {3-[(4-{[(4E)-4-(3-Chlorophenyl)-5-(3,4-dimethylphenyl)pent-4-en-1-yl]oxy}benzyl)amino]propyl}phosphonic acid]
6 | 10.2 nM | Cc1ccc(/C=C(\CCCSc2ccc(CNCCC(=O)O)cc2)c2cc(F)cc(F)c2)cc1C [Compound 8, 3-[(4-{[(4E)-4-(3,5-Difluorophenyl)-5-(3,4-dimethylphenyl)pent-4-en-1-yl]thio}benzyl)amino]propanoic acid]
7 | 51.9 nM | Cc1ccc(/C=C(\CCCOc2ccc(CNCCC(=O)O)cc2)c2cc(F)cc(F)c2)cc1C [Compound 3, 3-[(4-{[(4E)-4-(3,5-Difluorophenyl)-5-(3,4-dimethylphenyl)pent-4-en-1-yl]oxy}benzyl)amino]propanoic acid]
8 | 111 nM | Cc1ccc(/C=C(\CCC[S+]([O-])c2ccc(CNCCC(=O)O)cc2)c2cc(F)cc(F)c2)cc1C (centres unmarked) [Compound 7, 3-[(4-{[(4E)-4-(3,5-Difluorophenyl)-5-(3,4-dimethylphenyl)pent-4-en-1-yl]sulfinyl}benzyl)amino]propanoic acid]
